Data on 28 molecules can be found in patent publication US20240018163A1, “NEW THIAZOLOPYRIMIDINONE DERIVATIVES” (Hoffmann-La Roche Inc., priority 2021, published 2024).

For orientation: EC50 means the concentration that produces a half-maximal response.

The test system of this assay is mutant HTT protein (mHTT). Kind of assay: Homogeneous Time Resolved Fluorescence (HTRF) assay for HTT lowering. Type of assay: cell-based. The conditions noted are these: reduction of mHTT in Huntington patient human cells (GENEAe020-A cell line), 48 hours incubation, mean from three replicates. Here is the method:
Homogeneous Time Resolved Fluorescence for HTT lowering
The HTRF assay was adapted from Weiss et al. (Analytical Biochemistry Volume 395, Issue 1, 1 Dec. 2009, Pages 8-15 and Analytical Biochemistry Volume 410, 2011, Pages 304-306) to cells from GENEAe020-A cell line (https://hpscreg.eu/cell-line/GENEAe020-A).
Compounds were tested for the effect of mutant HTT levels in Huntington patient human cells (GENEAe020-A cell line) using Homogeneous Time Resolved Fluorescence (HTRF) directed towards mutant HTT protein (mHTT). The GENEAe020-A cell line was derived by Genea Biocells from human blastocysts of HD donors. After assessing viability, cells were plated into 384 well collagen coated plates in growth media. Once cells adhered, media was removed and test compounds dissolved in DMSO were diluted with buffer solution and added to the adherent cells. Controls included experiments with no cells, DMSO with no compound, and Hsp90 inhibitor control. Cells were incubated with compounds and controls for 48 hours. Then, the cells were lysed and transferred to an assay plate containing HTRF labeled monoclonal antibodies developed by Paul Patterson (Ko et al., Brain Research Bulletin, Volume 56, Numbers 3 and 4, 2001, Pages 319-329) which recognize specific areas of the HTT protein. The terbium labeled “donor” antibody (2B7) binds to the N-terminus of the HTT protein and the Alexa488 labeled “acceptor” antibody (MW1) is specific for the polyglutamine region of the protein. Binding of the acceptor labeled antibody is more efficient for the extended polyglutamine repeats of mutant HTT protein which translates into a signal boost which enables the specific measurement of mutant HTT protein level. The HTRF donor and acceptor detection reagents were incubated with the cell lysate and the ratio between the signals of the two fluorophores is indicative of the relative quantities of mHTT.

`Cc1cn2nc(-c3cc(=O)n4cc(N5CC[C@H](N6CCCC6)C5)sc4n3)cc(C)c2n1` [Example 21, 7-(2,8-dimethylimidazo[1,2-b]pyridazin-6-yl)-2-[(3S)-3-pyrrolidin-1-ylpyrrolidin-1-yl]thiazolo[3,2-a]pyrimidin-5-one] had an EC50 of 4200 nM.

In the case of `Cc1cn2nc(-c3cc(=O)n4cc(N5CCC6(CCNCC6)C5)sc4n3)cc(C)c2n1` [Example 22, 2-(2,8-diazaspiro[4.5]decan-2-yl)-7-(2,8-dimethylimidazo[1,2-b]pyridazin-6-yl)thiazolo[3,2-a]pyrimidin-5-one], the response was half-maximal at 1320 nM (EC50).

Turning to `Cc1cn2nc(-c3cc(=O)n4cc(N5CCNCC5)sc4n3)cc(C(C)C)c2n1` [Example 23, 7-(8-isopropyl-2-methyl-imidazo[1,2-b]pyridazin-6-yl)-2-piperazin-1-yl-thiazolo[3,2-a]pyrimidin-5-one], the EC50 turned out to be 671 nM.

Take `Cc1cn2nc(-c3cc(=O)n4cc(C5CCNCC5)sc4n3)cc(C)c2n1` [Example 24, 7-(2,8-dimethylimidazo[1,2-b]pyridazin-6-yl)-2-(4-piperidyl)thiazolo[3,2-a]pyrimidin-5-one]: the response was half-maximal at 28 nM (EC50).

`Cc1cn2nc(-c3cc(=O)n4cc(N5CCN6CCC[C@@H]6C5)sc4n3)cc(C(F)(F)F)c2n1` [Example 25, 7-[2-methyl-8-(trifluoromethyl)imidazo[1,2-b]pyridazin-6-yl]-2-[(8aR)-3,4,6,7,8,8a-hexahydro-1H-pyrrolo[1,2-a]pyrazin-2-yl]thiazolo[3,2-a]pyrimidin-5-one] yielded an EC50 of 454 nM.

`Cc1cn2nc(-c3cc(=O)n4cc(C5(F)CCNCC5)sc4n3)cc(C)c2n1` [Example 26, 7-(2,8-dimethylimidazo[1,2-b]pyridazin-6-yl)-2-(4-fluoro-4-piperidyl)thiazolo[3,2-a]pyrimidin-5-one]: the EC50 is 128 nM.

Molecule `Cc1cn2nc(-c3cc(=O)n4cc(N5CCNCC5)sc4n3)cc(OC(F)F)c2n1` [Example 27, 7-[8-(difluoromethoxy)-2-methyl-imidazo[1,2-b]pyridazin-6-yl]-2-piperazin-1-yl-thiazolo[3,2-a]pyrimidin-5-one] had an EC50 of 68 nM.

`Cc1nc2c(C(F)(F)F)cc(-c3cc(=O)n4cc(N5CCNCC5)sc4n3)nc2o1` [Example 28, 7-[2-methyl-7-(trifluoromethyl)oxazolo[5,4-b]pyridin-5-yl]-2-piperazin-1-yl-thiazolo[3,2-a]pyrimidin-5-one] showed an EC50 of 691 nM.

On to `COc1cc(-c2cc(=O)n3cc(C4CCNCC4)sc3n2)nn2cc(C)nc12` [Example 29, 7-(8-methoxy-2-methyl-imidazo[1,2-b]pyridazin-6-yl)-2-(4-piperidyl)thiazolo[3,2-a]pyrimidin-5-one], for which the EC50 came out at 35 nM.

In the case of `Cc1nc2c(C)cc(-c3cc(=O)n4cc(C5CCNCC5)sc4n3)nc2o1` [Example 30, 7-(2,7-dimethyloxazolo[5,4-b]pyridin-5-yl)-2-(4-piperidyl)thiazolo[3,2-a]pyrimidin-5-one], the EC50 came out at 40 nM.

Consider `Cc1cc(-c2cc(=O)n3cc(C4CCNCC4)sc3n2)nn2cc(Cl)nc12` [Example 31, 7-(2-chloro-8-methyl-imidazo[1,2-b]pyridazin-6-yl)-2-(4-piperidyl)thiazolo[3,2-a]pyrimidin-5-one], for which it took 71 nM to reach a half-maximal effect (EC50).

The molecule `Cc1cn2nc(-c3cc(=O)n4cc([C@@H]5CCNC[C@@H]5F)sc4n3)cc(C)c2n1` [Example 32, 7-(2,8-dimethylimidazo[1,2-b]pyridazin-6-yl)-2-[(3R,4R)-3-fluoro-4-piperidyl]thiazolo[3,2-a]pyrimidin-5-one] showed an EC50 of 33 nM.

Take `Cc1cn2nc(-c3cc(=O)n4cc([C@H]5CCNC[C@H]5F)sc4n3)cc(C)c2n1` [Example 33, 7-(2,8-dimethylimidazo[1,2-b]pyridazin-6-yl)-2-[(3S,4S)-3-fluoro-4-piperidyl]thiazolo[3,2-a]pyrimidin-5-one]: a half-maximal effect (EC50) was put at 86 nM.

Take `COc1cc(-c2cc(=O)n3cc([C@@H]4CCNC[C@@H]4F)sc3n2)nn2cc(C)nc12` [Example 34, 7-(8-methoxy-2-methyl-imidazo[1,2-b]pyridazin-6-yl)-2-[(3R,4R)-3-fluoro-4-piperidyl]thiazolo[3,2-a]pyrimidin-5-one]: the EC50 amounted to 22 nM.

As to `COc1cc(-c2cc(=O)n3cc([C@H]4CCNC[C@H]4F)sc3n2)nn2cc(C)nc12` [Example 35, 7-(8-methoxy-2-methyl-imidazo[1,2-b]pyridazin-6-yl)-2-[(3S,4S)-3-fluoro-4-piperidyl]thiazolo[3,2-a]pyrimidin-5-one], a half-maximal effect (EC50) was put at 61 nM.

With `Cc1cn2nc(-c3cc(=O)n4cc([C@H]5CCNC6(CC6)C5)sc4n3)cc(C)c2n1` [Example 36, 7-(2,8-dimethylimidazo[1,2-b]pyridazin-6-yl)-2-[(7S)-4-azaspiro[2.5]octan-7-yl]thiazolo[3,2-a]pyrimidin-5-one], it took 55 nM to reach a half-maximal effect (EC50).

The molecule `Cc1cn2nc(-c3cc(=O)n4cc([C@@H]5CCNC6(CC6)C5)sc4n3)cc(C)c2n1` [Example 37, 7-(2,8-dimethylimidazo[1,2-b]pyridazin-6-yl)-2-[(7R)-4-azaspiro[2.5]octan-7-yl]thiazolo[3,2-a]pyrimidin-5-one] displayed an EC50 of 112 nM.

Molecule `Cc1cn2nc(-c3cc(=O)n4cc([C@@H]5CCNC[C@H]5F)sc4n3)cc(C)c2n1` [Example 38, 7-(2,8-dimethylimidazo[1,2-b]pyridazin-6-yl)-2-[(3S,4R)-3-fluoro-4-piperidyl]thiazolo[3,2-a]pyrimidin-5-one] displayed an EC50 of 280 nM.

In turn, `Cc1cn2nc(-c3cc(=O)n4cc([C@H]5CCNC[C@@H]5F)sc4n3)cc(C)c2n1` [Example 39, 7-(2,8-dimethylimidazo[1,2-b]pyridazin-6-yl)-2-[(3R,4S)-3-fluoro-4-piperidyl]thiazolo[3,2-a]pyrimidin-5-one] returned an EC50 of 53 nM.

Take `COc1cc(-c2cc(=O)n3cc([C@H]4CCNC5(CC5)C4)sc3n2)nn2cc(C)nc12` [Example 40, 7-(8-methoxy-2-methyl-imidazo[1,2-b]pyridazin-6-yl)-2-[(7S)-4-azaspiro[2.5]octan-7-yl]thiazolo[3,2-a]pyrimidin-5-one]: it took 83 nM to reach a half-maximal effect (EC50).

For the molecule `COc1cc(-c2cc(=O)n3cc([C@@H]4CCNC5(CC5)C4)sc3n2)nn2cc(C)nc12` [Example 41, 7-(8-methoxy-2-methyl-imidazo[1,2-b]pyridazin-6-yl)-2-[(7R)-4-azaspiro[2.5]octan-7-yl]thiazolo[3,2-a]pyrimidin-5-one], the EC50 amounted to 106 nM.

`COc1cc(-c2cc(=O)n3cc(C4(F)CCNCC4)sc3n2)nn2cc(C)nc12` [Example 42, 2-(4-fluoro-4-piperidyl)-7-(8-methoxy-2-methyl-imidazo[1,2-b]pyridazin-6-yl)thiazolo[3,2-a]pyrimidin-5-one] showed an EC50 of 53 nM.

`Cc1cc(-c2cc(=O)n3cc([C@@H]4CCNC[C@@H]4F)sc3n2)nn2cc(Cl)nc12` [Example 43, 7-(2-chloro-8-methyl-imidazo[1,2-b]pyridazin-6-yl)-2-[(3R,4R)-3-fluoro-4-piperidyl]thiazolo[3,2-a]pyrimidin-5-one] displayed an EC50 of 152 nM.

The molecule `Cc1nc2c(C)cc(-c3cc(=O)n4cc([C@@H]5CCNC[C@@H]5F)sc4n3)nc2o1` [Example 44, 7-(2,7-dimethyloxazolo[5,4-b]pyridin-5-yl)-2-[(3R,4R)-3-fluoro-4-piperidyl]thiazolo[3,2-a]pyrimidin-5-one] yielded an EC50 of 59 nM.

`COc1cc(-c2cc(=O)n3cc([C@@H]4CCNC[C@H]4F)sc3n2)nn2cc(C)nc12` [Example 45, 7-(8-methoxy-2-methyl-imidazo[1,2-b]pyridazin-6-yl)-2-[(3S,4R)-3-fluoro-4-piperidyl]thiazolo[3,2-a]pyrimidin-5-one] yielded an EC50 of 97 nM.

For `COc1cc(-c2cc(=O)n3cc([C@H]4CCNC[C@@H]4F)sc3n2)nn2cc(C)nc12` [Example 46, 7-(8-methoxy-2-methyl-imidazo[1,2-b]pyridazin-6-yl)-2-[(3R,4S)-3-fluoro-4-piperidyl]thiazolo[3,2-a]pyrimidin-5-one], the EC50 is 69 nM.

Turning to `Cc1cn2nc(-c3cc(=O)n4cc([C@H]5C[C@H]6CNC[C@@H](C5)O6)sc4n3)cc(C)c2n1` [Example 47, 7-(2,8-dimethylimidazo[1,2-b]pyridazin-6-yl)-2-[rac-(1R,5S)-9-oxa-3-azabicyclo[3.3.1]nonan-7-yl]thiazolo[3,2-a]pyrimidin-5-one], the EC50 turned out to be 330 nM.

Take `Cc1cn2nc(-c3cc(=O)n4cc([C@H]5C[C@H]6CNC[C@@H](C5)O6)sc4n3)cc(C)c2n1` [Example 48, 7-(2,8-dimethylimidazo[1,2-b]pyridazin-6-yl)-2-[rac-(1S,5R)-9-oxa-3-azabicyclo[3.3.1]nonan-7-yl]thiazolo[3,2-a]pyrimidin-5-one]: the EC50 stood at 92 nM.
